Assay results as given in ChEMBL document CHEMBL3885881, “DrugMatrix”.

Organism: Rattus norvegicus
Assay: DrugMatrix - Regimen: Daily Repeat
Type: toxicity, organism-based, Sprague-Dawley
Parameters: regimen Daily Repeat, gender Male, age 6-8 weeks
Details: in vivo, po, route oral GAVAGE, […]; for ABSOLUTE BASOPHIL / ABSOLUTE EOSINOPHIL / ABSOLUTE LYMPHOCYTE / ABSOLUTE MONOCYTE / ABSOLUTE SEGMENTED NEUTROPHIL / BASOPHIL / EOSINOPHIL / ERYTHROCYTE COUNT / HEMATOCRIT / HEMOGLOBIN / LEUKOCYTE COUNT / LYMPHOCYTE / MEAN CORPUSCULAR HEMOGLOBIN / MEAN CORPUSCULAR HEMOGLOBIN CONCENTRATION / MEAN CORPUSCULAR VOLUME / MONOCYTE / NEUTROPHIL / NUCLEATED RED BLOOD CELLS / PLATELET COUNT: tissue Blood; for ALANINE AMINOTRANSFERASE / ALBUMIN / ALKALINE PHOSPHATASE / ASPARTATE AMINOTRANSFERASE / BLOOD UREA NITROGEN / CARBON DIOXIDE / CHLORIDE / CHOLESTEROL / CREATINE PHOSPHOKINASE / CREATININE / GLUCOSE / LACTATE DEHYDROGENASE / LIPASE / PHOSPHORUS / POTASSIUM / SODIUM / TOTAL BILIRUBIN / TOTAL PROTEIN / URIC ACID: tissue Plasma
[1] = 0 mg/kg, 72 h, dose level Control, time 3 day
[2] = 0 mg/kg, 120 h, dose level Control, time 5 day
[3] = 10 mg/kg, 72 h, dose level Low, time 3 day

## COCCOC(=O)C1=C(C)NC(C)=C(C(=O)OC(C)C)C1c1cccc([N+](=O)[O-])c1 (centres undefined) [NIMODIPINE]
[1]
  ABSOLUTE BASOPHIL: 0 CELLS/uL
  ABSOLUTE EOSINOPHIL: 0 CELLS/uL
  ABSOLUTE LYMPHOCYTE: 9244.83 CELLS/uL
  ABSOLUTE MONOCYTE: 102 CELLS/uL
  ABSOLUTE SEGMENTED NEUTROPHIL: 869.83 CELLS/uL
  BASOPHIL: 0%
  EOSINOPHIL: 0%
  ERYTHROCYTE COUNT: 5.43 x10E6/uL
  HEMATOCRIT: 34.03%
  HEMOGLOBIN: 13.27 G/DL
  LEUKOCYTE COUNT: 10.22 x10E3/uL
  LYMPHOCYTE: 90.33%
  MEAN CORPUSCULAR HEMOGLOBIN: 24.48 pg
  MEAN CORPUSCULAR HEMOGLOBIN CONCENTRATION: 39.03 G/DL
  MEAN CORPUSCULAR VOLUME: 62.75 fL
  MONOCYTE: 1%
  NEUTROPHIL: 8.67%
  NUCLEATED RED BLOOD CELLS: 0.17 /100WBC
  PLATELET COUNT: 989 x10E3/uL
  ALANINE AMINOTRANSFERASE: 77 u/L
  ALBUMIN: 3.97 G/DL
  ALKALINE PHOSPHATASE: 464.83 u/L
  ASPARTATE AMINOTRANSFERASE: 89.83 u/L
  BLOOD UREA NITROGEN: 12.17 mg/dL
  CARBON DIOXIDE: 34.17 mmol/L
  CHLORIDE: 98.33 MEQ/L
  CHOLESTEROL: 75.17 mg/dL
  CREATINE PHOSPHOKINASE: 367.67 u/L
  CREATININE: 0.16 mg/dL
  GLUCOSE: 142.67 mg/dL
  LACTATE DEHYDROGENASE: 139.33 u/L
  LIPASE: 9.5 u/L
  PHOSPHORUS: 10.85 mg/dL
  POTASSIUM: 6.38 MEQ/L
  SODIUM: 143.2 MEQ/L
  TOTAL BILIRUBIN: 0.2 mg/dL
  TOTAL PROTEIN: 5.77 G/DL
  URIC ACID: 0.7 mg/dL
[2]
  ABSOLUTE BASOPHIL: 0 CELLS/uL
  ABSOLUTE EOSINOPHIL: 0 CELLS/uL
  ABSOLUTE LYMPHOCYTE: 8295.33 CELLS/uL
  ABSOLUTE MONOCYTE: 84.67 CELLS/uL
  ABSOLUTE SEGMENTED NEUTROPHIL: 970 CELLS/uL
  BASOPHIL: 0%
  EOSINOPHIL: 0%
  ERYTHROCYTE COUNT: 5.74 x10E6/uL
  HEMATOCRIT: 36.22%
  HEMOGLOBIN: 13.85 G/DL
  LEUKOCYTE COUNT: 9.35 x10E3/uL
  LYMPHOCYTE: 88.67%
  MEAN CORPUSCULAR HEMOGLOBIN: 24.13 pg
  MEAN CORPUSCULAR HEMOGLOBIN CONCENTRATION: 38.25 G/DL
  MEAN CORPUSCULAR VOLUME: 63.08 fL
  MONOCYTE: 1%
  NEUTROPHIL: 10.33%
  NUCLEATED RED BLOOD CELLS: 0.17 /100WBC
  PLATELET COUNT: 883.83 x10E3/uL
  ALANINE AMINOTRANSFERASE: 64.5 u/L
  ALBUMIN: 4.12 G/DL
  ALKALINE PHOSPHATASE: 425.67 u/L
  ASPARTATE AMINOTRANSFERASE: 88.5 u/L
  BLOOD UREA NITROGEN: 14.17 mg/dL
  CARBON DIOXIDE: 30.5 mmol/L
  CHLORIDE: 100.33 MEQ/L
  CHOLESTEROL: 55.33 mg/dL
  CREATINE PHOSPHOKINASE: 287.17 u/L
  CREATININE: 0.2 mg/dL
  GLUCOSE: 162.83 mg/dL
  LACTATE DEHYDROGENASE: 111.33 u/L
  LIPASE: 10.5 u/L
  PHOSPHORUS: 10.32 mg/dL
  POTASSIUM: 5.13 MEQ/L
  SODIUM: 143.93 MEQ/L
  TOTAL BILIRUBIN: 0.17 mg/dL
  TOTAL PROTEIN: 5.9 G/DL
  URIC ACID: 0.77 mg/dL
[3]
  ABSOLUTE BASOPHIL: 0 CELLS/uL
  ABSOLUTE EOSINOPHIL: 0 CELLS/uL
  ABSOLUTE LYMPHOCYTE: 10257 CELLS/uL
  ABSOLUTE MONOCYTE: 34.33 CELLS/uL
  ABSOLUTE SEGMENTED NEUTROPHIL: 975.33 CELLS/uL
  BASOPHIL: 0%
  EOSINOPHIL: 0%
  ERYTHROCYTE COUNT: 5.25 x10E6/uL
  HEMATOCRIT: 33.27%
  HEMOGLOBIN: 13.03 G/DL
  LEUKOCYTE COUNT: 11.27 x10E3/uL
  LYMPHOCYTE: 92%
  MEAN CORPUSCULAR HEMOGLOBIN: 24.83 pg
  MEAN CORPUSCULAR HEMOGLOBIN CONCENTRATION: 39.2 G/DL
  MEAN CORPUSCULAR VOLUME: 63.37 fL
  MONOCYTE: 0.33%
  NEUTROPHIL: 7.67%
  NUCLEATED RED BLOOD CELLS: 0 /100WBC
  PLATELET COUNT: 1138 x10E3/uL
  ALANINE AMINOTRANSFERASE: 72.67 u/L
  ALBUMIN: 3.87 G/DL
  ALKALINE PHOSPHATASE: 445.67 u/L
  ASPARTATE AMINOTRANSFERASE: 88 u/L
  BLOOD UREA NITROGEN: 12 mg/dL
  CARBON DIOXIDE: 33 mmol/L
  CHLORIDE: 99 MEQ/L
  CHOLESTEROL: 69.67 mg/dL
  CREATINE PHOSPHOKINASE: 468 u/L
  CREATININE: 0.2 mg/dL
  GLUCOSE: 153.33 mg/dL
  LACTATE DEHYDROGENASE: 135.67 u/L
  LIPASE: 10.67 u/L
  PHOSPHORUS: 11.03 mg/dL
  POTASSIUM: 6.2 MEQ/L
  SODIUM: 144.23 MEQ/L
  TOTAL BILIRUBIN: 0.17 mg/dL
  TOTAL PROTEIN: 5.57 G/DL
  URIC ACID: 0.7 mg/dL
